From patent US20230054976A1, “METHODS FOR INHIBITION OF ALPHA-SYNUCLEIN mRNA USING SMALL MOLECULES” (The Scripps Research Institute, priority 2019, published 2023)

What was measured:
[1] = system: 32P-labeled SNCA IRE hairpin RNA; experiment: RNase H-mediated ASO-Bind-Map; format: binding, human
Method: RNase H-mediated ASO-Bind-Map. SNCA IRE hairpin RNA was 5′-end labeled with [γ-^32P]ATP and T4 kinase as previously described^5. Approximately, 5 pmoles of ^32P labeled IRE RNA per reaction was folded in 1× RNase H buffer (New England Biolabs) by heating to 65° C. for 5 min and slowly cooling to room temperature. Serially diluted concentrations of Synucleozid were added to the RNA solutions and incubated at room temperature for 30 min. One of ASOs was then added to a final concentration of 500 nM, followed by incubation at room temperature for 30 min. Next, 0.05 U/μL RNase H (New England Biolabs) was added into each RNA-ligand mixture, and the samples were incubated for 20 min. Reactions were quenched by incubating at 65° C. for 20 min. T
Two ladders were generated to identify the positions of RNase H cleavage. Each guanosine (G) residue was identified by using RNase T1 under denaturing conditions as described above. Likewise, a hydrolysis ladder was generated as described above. Reactions were stopped by addition of an equal volume of 2× Loading Buffer. Fragments were separated on a denaturing 15% polyacrylamide gel and imaged using a BioRad PMI phosphorimager. Images were quantified with BioRad's QuantityOne software.

[2] = system: SH-SY5Y cells proteome; experiment: Proteomics profiling by mass spectrometry; format: cell-based, human; settings: 48 h
Method: Treatment with Synucleozid and siRNA for proteomics profiling using Mass Spectrometry. SH-SY5Y cells were cultured in 100 mm dishes to 60% confluency and treated with 1.5 μM of Synucleozid or DMSO, or transfected with 0.1 μM α-synuclein siRNA (ON-TARGETplus Human SNCA siRNA-SMARTpool) or scramble siRNA (ON-TARGETplus Non-targeting siRNA) using Lipofectamine RNAiMAX (Invitrogen) according to the manufacturer's instructions for 48 h. Cells were gently washed twice with ice-cold PBS, detached and lysed in PBS via sonication. […] Same samples were then denatured in 6 M urea in 50 mM NH4HCO3, reduced with 10 mM tris(2-carboxyethyl)phosphine hydrochloride (TCEP) for 30 min, and alkylated with 25 mM iodoacetamide for 30 min, in the dark at room temperature. Samples were diluted to 2 M urea with 50 mM NH4HCO3, and digested with trypsin (Thermo Scientific, 1.5 μL of 0.5 μg/μL) in the presence of 1 mM CaCl2 (100× stock in water). The digestion was performed for 12 h at 37° C. Samples were acidified to a final concentration of 5% acetic acid, desalted over a self-packed C18 spin column, and dried. Samples were then analyzed by LC-MS/MS (see below). The MS data were processed with MaxQuant.
LC-MS/MS analysis. Peptides from samples described above were resuspended in water with 0.1% formic acid and analyzed using EASY-nLC 1200 nano-UHPLC coupled to Q Exactive HF-X Quadrupole-Orbitrap mass spectrometer (Thermo Scientific). The chromatography column consists 30 cm long, 75 μm i.d. microcapillary capped by a 5 μm tip and packed with ReproSil-Pur 120 C18-AQ 2.4 μm beads (Dr. Maisch GmbH). LC solvents had two buffers which were Buffer A (0.1% formic acid in H2O) and Buffer B (0.1% formic acid in 90% MeCN:10% H2O). Peptides from samples described above were eluted into the mass spectrometer at a flow rate of 300 nL/min over a 240 min linear gradient (5-35% Buffer B) at 65 C. Data-dependent mode (top-20, NCE 28, R=7500) was used to acquire data after full MS scan (R=60000, m/z 400-1300). Dynamic exclusion was 10 s. Peptide match was set to prefer. Isotope exclusion was enabled.
MaxQuant analysis. MaxQuant (11) (V1.6.1.0) was used to analyze the mass spectrometer data. Data was searched against the human proteome (Uniprot) and a list of contaminants (included in MaxQuant). The first and main peptide search tolerance were set to 20 ppm and 10 ppm respectively. Fragment mass tolerance was set to 0.02 Da. The false discovery rate (FDR) was 1% for proteins, peptides, and sites identification. The minimum peptide length was set to 6 amino acids (AA). Peptide requantification, label-free quantification (MaxLFQ), “match between runs” were all enabled. The minimal number of peptides for every protein was set to 2. A variable modification was set to be methionine oxidation, and a fixed modification was set to be carbamidomethylation of cysteines in searches.

[3] = system: SH-SY5Y cells transcriptome; experiment: RNA-Seq transcriptome-wide differential expression; format: cell-based, human; settings: 48 h; Synucleozid 1.5 μM vs vehicle; siRNA 0.1 μM vs scrambled control
Method: RNA-Seq. SH-SY5Y cells were treated or transfected as described above for 48 h with Synucleozid (1.5 μM) and siRNA (0.1 μM). Total RNA was extracted using a miRNeasy Mini Kit (Qiagen, as described above) with on-column DNase I treatment. Qubit 2.0 Fluorometer (Invitrogen) was used for total RNA quantification. Quality of total RNA was assessed by using an Agilent Technologies 2100 Bioanalyzer RNA nano chip. Samples which have RNA integrity number >8.0 were used in future experiments. Probes provided by the NEBNext rRNA depletion module (catalog no.: E6310L, New England Biosciences) were used to deplete rRNA on approximate 500 ng of total RNA according to the manufacturer's recommendations. Library preparation was done with NEBNext Ultra 11 Directional RNA kit (catalog no.: E7760, New England Biosciences) according to the manufacturer's instructions. RNA samples were heated to 94° C. and simultaneously chemically fragmented in a divalent cation buffer for 15 min. Conversion of fragmented RNA to the first strand of cDNA was done with random hexamer priming and reverse transcription. To synthesize second strand, RNA template was removed and dUTP in place of dTTP was incorporated. […] Every sample with a base quality score >Q30 (<1 error per 1000 bp) generated around 20-25 million reads. Transcript abundance from these RNA samples were quantified using Kallisto (12). […]

[4] = Synucleozid 1.5 μM vs vehicle, siRNA 0.1 μM vs scrambled control siRNA

N=C(N)c1ccc(Nc2ccc(-c3cc4ccc(C(=N)N)cc4[nH]3)cc2)cc1 [Synucleozid A]
protection from RNase H cleavage, ASOs hybridized with sites other than A bulge ([1]; 1 μM): no protection from cleavage | protection of the IRE from RNase H cleavage ([1]; 0.1, 1, and 10 μM, ASO (1-10) and ASO (40-50) overlap with the A bulge): only observed with ASOs whose binding sites overlap with the A bulge | effect on proteins encoded by mRNAs with IREs (ACO2, NDUFS1, CDC42BPB, FTH1) ([2]; 1.5 μM): Only FTH1 was affected | number of proteins downregulated [2, 4]: 143 | number of proteins with increased expression [2, 4]: 140 | proteins affected, percentage of detected [2, 4]: 8% | proteins downregulated, % of all proteins [2, 4]: 4.3% | proteins with increased expression, % of all proteins [2, 4]: 4.2% | number of proteins affected among 3300 detected ([2]; Synucleozid 1.5 μM vs vehicle, siRNA 0.1 μM vs scrambled control siRNA, adjusted p-value <0.01): 283 | genes unchanged / genes detected [3]: 19979/20034 | genes unchanged, percentage [3]: 99.7%
